Our source for the GI50 and TGI values is PubChem BioAssay (NCI).

The structures appear in SMILES notation.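 Assay format: 96-well plates, 48-hour exposure. GI50 is the concentration that inhibits growth by half. TGI denotes the concentration required for complete inhibition of growth.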

What all share (experiment): inhibition of tumour cell growth, NCI panel, 48 h
The test system of test [1] is KM20L2 colon.
Test [2] deals with DMS 114 small cell lung.
For test [3], the system named is NCI-H226 lung.
The subject of test [4] is XF 498 CNS.
Test [5] concerns MCF7 breast.
Test [6] concerns MALME-3M melanoma.
The subject of test [7] is BT-549 breast.
Test [8] concerns TK-10 renal.
Test [9] concerns DU-145 prostate.
Test [10] has as its system SR leukemia.

As for `O=[Se]([O-])c1ccccc1.O=[Se]([O-])c1ccccc1.[OH3+].[OH3+].[Pt+2]`, the GI50 in test [1] was 8.88 µM; in test [2], 3.73 µM; in [3] it was 12.9 µM; in test [4], 7.72 µM; in test [5], 6.42 µM; in test [6] it was 16.5 µM. Moreover, the TGI is 35.1 µM in test [1]; 20.8 µM in test [2]; 52.5 µM in [3]; 26.2 µM in [4]; 37.2 µM in test [5]; 54.2 µM in [6].
Consider `CSC1=Nc2ccccc2N(C)c2c1c(-c1ccccc1)nn2C`, for which the TGI in test [7] is above 100 µM; in [8], above 100 µM; in test [5], above 100 µM; in [9], above 100 µM; in [10], 95 µM.
Turning to `N#Cc1c(NC(=S)NC(=O)c2ccccc2)nc2c(c1-c1ccccc1)CCC2`, the TGI in test [7], in test [8], in test [6], in [9] and in test [10] was above 100 µM throughout.
For the compound `COC1OC(=O)[C@H]2O[N+]([O-])=C(C)[C@@H]12` (some centres not stated), the TGI in test [1], in [2], in test [3], in [4], in test [5] and in [6] was above 100 µM in each case.
As to `C=CC(=O)Nc1cccc(-c2nc(SC)nc(Nc3ccccc3OC)c2C#N)c1`, the GI50 in test [7] was 3.19 µM; in test [8] it was 1.99 µM; in [3], 9.7 µM; in [6] it was 1.54 µM; in test [9], 1.92 µM; in [10], 1.49 µM. Further, the TGI in test [7] is 38.5 µM; in test [8], 4.02 µM; in test [3] it was 36.1 µM; in test [6], 3.44 µM; in test [9] it was 4.96 µM; in test [10], 4.19 µM.
On to `Nc1n[nH]c(=O)[nH]1`, for which the TGI in test [1], in test [2], in test [3], in test [4], in [5] and in [6] was above 100 µM in each case.
Turning to `O=C1CC(=O)N(c2ccccc2)N1/C(=C/c1ccccc1)c1ccccc1`, the TGI in test [7] was determined as 50.2 µM; in test [8] it was 48.6 µM; in test [3], 73.5 µM; in test [5] it was 57.3 µM; in test [9], 82.6 µM; in test [10], 40.9 µM.
